According to article PMC3169566, “Rationally Designed Interfacial Peptides Are Efficient In Vitro Inhibitors of HIV-1 Capsid Assembly with Antiviral Activity” (PLoS ONE, 2011):
Peptide text beside a SMILES is read from it.

Columns and labels:
[1] = molecular target: T1, CTD (C-terminal domain of HIV-1 capsid protein CA) (Human immunodeficiency virus type 1 group M subtype B, UniProt P04591); assay: CTD binding by fluorescence titration; conditions: 20 µM wild-type dimeric CTD, 25°C, 50 mM phosphate buffer pH 7.0, 1:1 binding isotherm, read-out: CTD-binding K D
T1 construct: CA protein and the isolated CTD (either unlabelled or labelled) were purified as described previously; made in house
Protocol: Spectra were collected on a Cary Eclipse spectrofluorimeter (Varian, CA, USA). A concentration of 20 µM CTD and increasing peptide concentrations were used for titration experiments carried out at 25°C in 50 mM phosphate buffer pH 7.0. Excitation wavelength was 280 nm or 295 nm, and emission fluorescence was collected between 300 nm and 400 nm. The excitation and emission slits were set to 5 nm. The response time was 1 s. The dissociation constant of each complex was calculated by fitting the changes observed either in: (i) the fluorescence intensity at a particular wavelength; or (ii) the value of the average energy <λ> [42] for a fixed CTD concentration versus the concentration of added peptide as described.

[2] = Solubility under the conditions of the NMR experiments; assay type: physicochemical; conditions: aqueous buffer, long incubations at a relatively high temperature, 50 mM phosphate buffer pH 7.0, read-out: Concentration at which the peptide remained fully soluble
Protocol: NMR spectra were acquired at 20°C on a Bruker Avance DRX-500 spectrometer (Bruker GmbH, Germany) equipped with a triple resonance probe and z-pulse field gradients. Sodium trimethylsilyl [2,2,3,3-^2H4] propionate (Sigma) was used as the internal chemical shift reference in the homonuclear experiments. All experiments were carried out in 50 mM phosphate buffer pH 7.0. Assignments of the heteronuclear single quantum coherence (HSQC) NMR spectra were those previously obtained for the monomeric CTD [43], [44].
We first analyzed whether the CAC1-derived peptides CAC1C and CAC1M had any tendency to self-associate. […] The hydrodynamic radius (Rh) of the three peptides was similar (Table 1).

[3] = molecular target: T2, HIV-1 capsid protein CA (Human immunodeficiency virus type 1 group M subtype B, UniProt P04591); assay: CA polymerization in vitro (turbidity at 350 nm) with Ficoll-70 crowding agent; assay type: biochemical; conditions: 20 µM CA
T2 construct: CA protein and the isolated CTD (either unlabelled or labelled) were purified as described previously; made in house
Protocol: Assembly reactions were carried out as described previously, [53] with some modifications. In general, the polymerization mixtures contained 50 mM sodium phosphate buffer pH 7.4, 2.25 M NaCl, 20 µM CA, and 100 g/l Ficoll-70 (GE HealthCare) as a macromolecular crowding agent. Where indicated, Ficoll-70 was omitted and the final CA concentration was raised to 46 µM. The experiments were initiated by introducing an appropriate volume of a CA solution in 50 mM phosphate buffer into a spectrophotometer cuvette (10-mm pathlength, 20 mm^2 internal section), and the assembly reaction was triggered by adding the appropriate volume of a solution containing 4 M NaCl, 179 g/l Ficoll-70 in 50 mM sodium phosphate buffer pH 7.4, to get the final concentrations desired for each component in a final volume of 500 µl, followed by rapid mixing by repeated inversion of the cell. The pH of the final reaction mixture was checked in a test sample. For inhibition assays, CA was mixed with the appropriate amounts of the peptides, and incubated for 30 minutes before triggering the reaction as indicated above. The time-dependent increase in the optical density at 350 nm as a measure of the light scattered by the assembled particles was monitored at 25°C using a UV-1603 spectrophotometer (Shimadzu, Japan), with data points collected every six seconds. Traces of the variation in the turbidity were analyzed as described previously, [53].

[4] = system: U87-CD4-CXCR4 cells; assay: Transport of peptides into cells (fluorescence microscopy, flow cytometry); assay type: cell-based, Human; conditions: rhodamine-labelled peptides in complex with Chariot 1:1, 3 h at 37°C
Protocol: To transport the peptides into NB324K or U87-CD4-CXCR4 cells a commercial cell-penetrating peptide (Chariot, Active Motif) was used, according to the manufacturer's recommendations. For fluorescence microscopy analyses, Chariot-peptide binding was accomplished by incubating a mixture containing between 5 µg and 50 µg of either FITC-labelled peptide or rhodamine-labelled peptide and the Chariot peptide at a 1∶1 molar ratio in 100 µl aliquots. Each 100 µl aliquot of the preincubated mixture was added to one well of a 24-well plate containing NB324K or U87-CD4-CXCR4 seeded the previous day (5·10^4 and 1.5·10^5 cells/well, respectively) and 100 µl of serum-free DMEM medium were added. The cells were incubated for 1–3 h, 800 µl DMEM containing 10% FBS were added, and incubation was continued for 1 h. Cells were fixed with a 1∶1 methanol∶acetone solution, their nucleus were stained with 4′,6-diamidino-2-phenylindol dihydrochloride (DAPI, Calbiochem), and cells were examined and imaged using an Axiovert200 (Zeiss) fluorescence microscope and/or a LSM-510 (Zeiss) confocal fluorescence microscope.
FITC-labelled peptides were transported into NB324K or U87-CD4-CXCR4 cells as described above. […] The resuspended cells were analyzed in a FACSCalibur flow cytometer (Becton Dickinson, USA).

[5] = system: HIV-1 strain HXB2; assay: Inhibition of HIV-1 production and infection in cultured cells (p24 antigen); assay type: cell-based; conditions: U87-CD4-CXCR4 cells, Chariot-mediated transport
Protocol: U87-CD4-CXCR4 cells from cultured monolayers were collected using 0.25% trypsin and resuspended in DMEM supplemented with 10% FBS (without antibiotics). Cells were seeded in 96-well plates at a density of 3.5×10^4 cells/well and incubated for 24 h. Then, the cells were incubated as described above with mixtures of the corresponding peptides and the Chariot peptide at the appropriate concentrations. After three hours of incubation, the cells were washed with PBS and infected with HIV-1 at a multiplicity of infection of 0.0015 (0.0015 TCID50/cell). After incubation for 2 h at 37°C, the cells were washed with PBS and DMEM supplemented with 10% FBS, 0.5 mg/ml geneticin and 1 µg/ml puromycin were added, and the infected cells were further incubated at 37°C. Viral replication was quantified by measuring HIV-1 CA (p24 antigen) production in the culture supernatant 72 h after infection, using an enzyme-linked immunoassay (INNOTEST HIV-antigen, Innogenetics).

[6] = system: U87-CD4-CXCR4 cells; conditions: without cell-penetrating peptide; cited from earlier work
[7] = peptide:CA molar ratio of 5, 100 g/l Ficoll-70

Compound | Kd [1] | solubility [2] | Higher reduction in polymerization rate compared to CAC1 [3, 7] | Higher reduction in total capsid production compared to CAC1 [3, 7] | Chariot-mediated transport of peptides into HIV-1-susceptible cells [4] | Inhibition of in vitro assembly of HIV-1 capsid-like particles, single inhibitor ([3]; 100 g/l Ficoll-70, 2.25 M NaCl, pH 7.4, 25°C, 30 min preincubation, inhibitor:CA molar ratios up to 10 (CAI 0.1-0.5)) | Inhibitory activity of single peptides on HIV-1 production ex vivo ([5]; MOI 0.0015, p24 at 72 h, H4 tested up to close to 2 mM) | Peptide concentration required for weak inhibitory activity on HIV-1 production ex vivo ([5]; p24 at 72 h) | Ability of the peptide to penetrate cells [6]
CSCC[C@H](NC(=O)[C@H](Cc1c[nH]c2ccccc12)NC(=O)[C@H](C)NC(=O)[C@H](CCCCN)NC(=O)[C@@H](NC(=O)[C@H](CO)NC(=O)[C@H](CO)NC(=O)[C@H](C)NC(=O)[C@H](C)NC(=O)[C@H](CO)NC(=O)[C@H](CCC(=O)O)NC(=O)[C@@H](N)CO)C(C)C)C(=O)N[C@H](C(=O)N[C@@H](CCC(=O)O)C(=O)N[C@H](C(=O)N[C@@H](CC(C)C)C(=O)N[C@@H](CC(C)C)C(=O)N[C@H](C(=O)N[C@@H](C)C(=O)N[C@@H](CC(N)=O)C(=O)N[C@H](C(=O)N[C@@H](CO)C(=O)N[C@@H](CO)C(N)=O)[C@@H](C)O)C(C)C)[C@@H](C)O)[C@@H](C)O [CAC1M] (H-SESAASSVKAWMTETLLVANTSS-NH2) | 8 ± 1 µM | ≥ 200 µM | ~30% | about 20% | had been achieved | – | – | – | –
CSCC[C@H](NC(=O)[C@H](Cc1c[nH]c2ccccc12)NC(=O)[C@H](C)NC(=O)[C@H](CCCCN)NC(=O)[C@@H](NC(=O)[C@H](CO)NC(=O)[C@H](CO)NC(=O)[C@H](CO)NC(=O)[C@H](C)NC(=O)[C@H](CO)NC(=O)[C@@H](N)CCC(=O)O)C(C)C)C(=O)N[C@H](C(=O)N[C@@H](CCC(=O)O)C(=O)N[C@H](C(=O)N[C@@H](CC(C)C)C(=O)N[C@@H](CC(C)C)C(=O)N[C@H](C(=O)N[C@@H](CCC(N)=O)C(=O)N[C@@H](CC(N)=O)C(=O)N[C@@H](C)C(N)=O)C(C)C)[C@@H](C)O)[C@@H](C)O [CAC1C] (H-ESASSSVKAWMTETLLVQNA-NH2) | 19 ± 8 µM | ≥ 200 µM | – | – | – | – | – | – | –
ITFEDLLDYYGP [CAI] | – | – | – | – | had been achieved | very efficient | at most a weak inhibitory activity | > 1 mM | unable to penetrate cells
